Data reported in patent US5512553A, “7-(substituted)-8-(substituted)-9-(substituted amino)-6-demethyl-6-deoxytetracyclines” (American Cyanamid Company, priority 1995, dated 1996).
Where a name gives a salt, the structure may show the parent alone. Read-outs that look alike come from different tables or passages of the source.

Experiments:
[1] = tested on: Staphylococcus aureus strain Smith (tetracycline sensitive); test: In vivo antibacterial evaluation, acute lethal infection in mice; details: 168 h, female mice CD-1, intraperitoneal challenge with S. aureus Smith, dosed subcutaneously or orally 30 minutes after infection, 7 day survival ratios
Procedure: In Vivo Antibacterial Evaluation (Table III)
The therapeutic effects of tetracyclines are determined against an acute lethal infection with Staphylococcus aureus strain Smith (tetracycline sensitive). Female, mice, strain CD-1 (Charles River Laboratories), 20±2 grams, are challenged by an intraperitoneal injection of sufficient bacteria (suspended in hog mucin) to kill non-treated controls within 24-48 hours. Antibacterial agents, contained in 0.5 ml of 0.2% aqueous agar, are administered subcutaneously or orally 30 minutes after infection. When an oral dosing schedule is used, animals are deprived of food for 5 hours before and 2 hours after infection. Five mice are treated at each dose level. The 7 day survival ratios from 3 separate tests are pooled for calculation of median effective dose (ED50).

[2] = tested on: E. coli UBMS 88-2 (sensitive); test: In vitro antibacterial evaluation, MIC by agar dilution; format: cell-based; details: Escherichia coli
Procedure: (§1) Method for In Vitro Antibacterial Evaluation (Table I)
(§2) The minimum inhibitory concentration (MIC), the lowest concentration of the antibiotic which inhibits growth of the test organism, is determined by the agar dilution method using Muller-Hinton II agar (Baltimore Biological Laboratories). An inoculum density of 1-5×10^5 CFU/ml and an antibiotic concentration (32-≤0.015 μg/ml) is used. The plates are incubated for 18 hours at 35° C. in a forced air incubator. The test organisms comprise strains sensitive to tetracycline and genetically defined strains that are resistant to tetracycline, due to inability to bind bacterial ribosomes (tetM).

[3] = tested on: E. coli ATCC 25922; test: as above; format: cell-based; details: Escherichia coli
Procedure: as §1, §2

[4] = tested on: S. aureus UBMS 90-3 (sensitive); test: as above; format: cell-based; details: Staphylococcus aureus
Procedure: as §1, §2

[5] = tested on: Enteroc. spp. 12201; test: as above; format: cell-based
Procedure: as §1, §2

[6] = tested on: E. coli UBMS 89-2 (sensitive); test: as above; format: cell-based; details: Escherichia coli, Muller-Hinton II agar, 18 hours at 35° C.
Procedure: as §1, §2

[7] = tested on: S. aureus SMITH (MP) (sensitive); test: as above; format: cell-based; details: Staphylococcus aureus
Procedure: as §1, §2

[8] = tested on: S. aureus ATCC 29213 (sensitive); test: as above; format: cell-based; details: Staphylococcus aureus
Procedure: as §1, §2

[9] = tested on: S. aureus IVES 2943 (meth. resistant); test: as above; format: cell-based; details: Staphylococcus aureus, 18 h
Procedure: as §1, §2

[10] = tested on: S. faecal. ATCC 29212; test: as above; format: cell-based
Procedure: as §1, §2

[11] = tested on: S. aureus IVES 1983 (MP) (meth. resistant); test: as above; format: cell-based; details: Staphylococcus aureus
Procedure: as §1, §2

[12] = tested on: S. haemol. AVAH 88-3; test: as above; format: cell-based
Procedure: as §1, §2

[13] = tested on: S. aureus UBMS 88-4 (sensitive); test: as above; format: cell-based; details: Staphylococcus aureus, 18 h
Procedure: as §1, §2

[14] = tested on: S. aureus UBMS 88-5 (tetM); test: microbe, parasite or virus in culture; format: cell-based; details: Staphylococcus aureus, 18 h
Procedure: as §1, §2

[15] = tested on: S. aureus UBMS 90-2 (tetM); test: microbe, parasite or virus in culture; format: cell-based; details: Staphylococcus aureus, 18 h
Procedure: as §1, §2

[16] = tested on: E. coli UBMS 88-1 (tetB); test: microbe, parasite or virus in culture; format: cell-based; details: Escherichia coli, 18 h
Procedure: as §1, §2

[17] = tested on: S. aureus UBMS 90-1 (tetM); test: microbe, parasite or virus in culture; format: cell-based; details: Staphylococcus aureus, 18 h
Procedure: as §1, §2

[18] = tested on: S. aureus UBMS 88-7 (tetK); test: microbe, parasite or virus in culture; format: cell-based; details: Staphylococcus aureus, 18 h
Procedure: as §1, §2

[19] = tested on: E. coli UBMS 89-1 (tetM); test: microbe, parasite or virus in culture; format: cell-based; details: Escherichia coli, 18 h
Procedure: as §1, §2

[20] = tested on: S30 extract from E. coli strain MRE 600 (tetracycline sensitive); test: E. coli in vitro cell free protein translation system, Wild Type S30; format: biochemical; details: for % Inhibition Wild Type S30: 35S-methionine incorporation, 30 minutes at 37° C.
Description: (§3) E. coli in Vitro protein Translation System (Table II)
(§4) An in vitro, cell free, protein translation system using extracts from E. coli strain MRE 600 (tetracycline sensitive) and a derivative of MRE 600 containing the tetM determinant has been developed based on literature methods J. M. Pratt, Coupled Transcription-translation in Prokaryotic Cell-free Systems, Transcription and Translation, a Practical Approach, (B. D. Hames and S. J. Higgins, eds) p. 179-209, IRL Press, Oxford-Washington, 1984!.
(§5) Using the system described above, the tetracycline compounds of the present invention are tested for their ability to inhibit protein synthesis in vitro. Briefly, each 10 μl reaction contains S30 extract (a whole extract) made from either tetracycline sensitive cells or an isogenic tetracycline resistant (tetM) strain, low molecular weight components necessary for transcription and translation (i.e., ATP and GTP), a mix of 19 amino acids (no methionine), ^35 S labeled methionine, DNA template (either pBR322 or pUC119), and either DMSO (control) or the novel tetracycline compound to be tested ("novel TC") dissolved in DMSO.
(§6) The reactions are incubated for 30 minutes at 37° C. Timing is initiated with the addition of the S30 extract, the last component to be added. After 30 minutes, 2.5 μl of the reaction is removed and mixed with 0.5 ml of 1N NaOH to destroy RNA and tRNA. Two to three ml of 25% trichloroacetic acid is added and the mixture incubated at room temperature for 15 minutes. The trichloroacetic acid precipitated material is collected on Whatman GF/C filters and washed with a solution of 10% trichloroacetic acid. The filters are dried and the retained radioactivity, representing incorporation of ^35 S-methionine into polypeptides, is counted using standard liquid scintillation methods.
(§7) The percent inhibition (P.I.) of protein synthesis is determined to be: [formula]

[21] = tested on: S30 extract from derivative of E. coli MRE 600 containing the tetM determinant; test: E. coli in vitro cell free protein translation system, TetM S30; format: biochemical; details: for % Inhibition TetM S30: 35S-methionine incorporation, 30 minutes at 37° C.
Description: as §3, §4, §5, §6, §7

[22] = agar dilution, Muller-Hinton II agar, 18 hours at 35° C., S. aureus UBMS 90-3 (sensitive), read-out: MIC
[23] = agar dilution, Muller-Hinton II agar, 18 hours at 35° C., S. aureus SMITH (MP) (sensitive), read-out: MIC
[24] = ATCC29213, agar dilution, Muller-Hinton II agar, 18 hours at 35° C., S. aureus ATCC 29213 (sensitive), read-out: MIC
[25] = agar dilution, Muller-Hinton II agar, 18 hours at 35° C., S. faecal. ATCC 29212, read-out: MIC

| SMILES | ED50 [1] | MIC ([2]; 18 h) | MIC ([3]; ATCC25922, 18 h) | MIC ([5]; 18 h) | MIC [6] | MIC [8, 24] | MIC [9] | MIC ([10]; 18 h) | MIC ([11]; 18 h) | MIC ([12]; 18 h) | MIC [13] | MIC [14] | MIC [15] | MIC [16] | MIC [17] | MIC [18] | MIC [19] | MIC ([4]; 18 h) | MIC ([7]; 18 h) | also measured |
| --- | --- | --- | --- | --- | --- | --- | --- | --- | --- | --- | --- | --- | --- | --- | --- | --- | --- | --- | --- | --- |
| CN(C)[C@@H]1C(O)=C(C(N)=O)C(=O)[C@@]2(O)C(O)=C3C(=O)c4c(cc(Cl)c(NC=O)c4O)CC3CC12 (some centres unmarked) [A HCL] | 4 to 8 mg/kg | – | – | – | – | – | – | – | – | – | – | – | – | – | – | – | – | – | – | – |
| CN(C)c1c(Cl)cc(O)c2c1CC1CC3[C@H](N(C)C)C(O)=C(C(N)=O)C(=O)[C@@]3(O)C(O)=C1C2=O (some centres unmarked) [B, 8-Chloro-4,7-bis(dimethylamino)-1,4,4a,5-5a,6,11,12a-octahydro-3,10,12,12a-tetrahydroxy-1,11-dioxo-2-naphthacenecarboxamide sulfate] | > 16 mg/kg | 8 µg/mL | 8 µg/mL | 1 µg/mL | 16 µg/mL | ≤ 0.015 µg/mL | 1 µg/mL | 1 µg/mL | 1 µg/mL | 0.25 µg/mL | 0.03 µg/mL | 0.5 µg/mL | 0.5 µg/mL | > 32 µg/mL | 0.05 µg/mL | 0.5 µg/mL | > 32 µg/mL | – | – | MIC [4, 22]: 0.06 µg/mL; MIC [7, 23]: 0.06 µg/mL |
| CN(C)c1c(Cl)c(NC=O)c(O)c2c1CC1CC3C(N(C)C)C(O)=C(C(N)=O)C(=O)C3(O)C(O)=C1C2=O.O=S(=O)(O)O (centres unmarked) [F, 8-Chloro-4,7-bis(dimethylamino)-9-(formylamino)-1,4,4a,5,5a,6,11,12a-octahydro-3,10,12,12a-tetrahydroxy-1,11-dioxo-2-naphthacenecarboxamide sulfate] | – | 1 µg/mL | 0.25 µg/mL | 0.5 µg/mL | 1 µg/mL | – | 8 µg/mL | 0.06 µg/mL | 8 µg/mL | 0.12 µg/mL | 0.12 µg/mL | 0.25 µg/mL | 0.12 µg/mL | > 32 µg/mL | 0.5 µg/mL | 4 µg/mL | 0.5 µg/mL | 0.06 µg/mL | 0.06 µg/mL | MIC ([8]; ATCC29213, 18 h): 0.06 µg/mL |
| CN(C)c1c(Cl)c(N)c(O)c2c1CC1CC3[C@H](N(C)C)C(O)=C(C(N)=O)C(=O)[C@@]3(O)C(O)=C1C2=O (some centres unmarked) [H, 9-Amino-8-chloro-4,7-(dimethylamino)-1,4-4a,5,5a,6,11,12a-octahydro-3,10,12,12a-tetrahydroxy-1,11-dioxo-2-naphthacenecarboxamide sulfate] | 4 to 8 mg/kg | – | 4 µg/mL | 4 µg/mL | 16 µg/mL | < 0.015 µg/mL | 1 µg/mL | – | 4 µg/mL | 0.12 µg/mL | 0.12 µg/mL | 1 µg/mL | 0.5 µg/mL | > 32 µg/mL | 2 µg/mL | 0.25 µg/mL | – | 0.12 µg/mL | 0.06 µg/mL | % Inhibition Wild Type S30 ([20]; Conc. 0.1 mg/ml): 52%; % Inhibition Wild Type S30 ([20]; Conc. 0.3 mg/ml): 62%; % Inhibition Wild Type S30 ([20]; Conc. 1.0 mg/ml): 57%; % Inhibition TetM S30 ([21]; Conc. 0.1 mg/ml): 19%; % Inhibition TetM S30 ([21]; Conc. 0.3 mg/ml): 21%; % Inhibition TetM S30 ([21]; Conc. 1.0 mg/ml): 29%; MIC ([2]; agar dilution, Muller-Hinton II agar, 18 hours at 35° C., E. coli UBMS 88-2 (sensitive), read-out: MIC): 8 µg/mL; MIC [10, 25]: 0.5 µg/mL |
| CN(C)[C@@H]1C(O)=C(C(N)=O)C(=O)[C@@]2(O)C(O)=C3C(=O)c4c(cc(Cl)c(NN)c4O)CC3CC12 (stereo partly drawn) [J, 4S-(4alpha, 12aalpha)!-8-Chloro-4-(dimethylamino)-9-hydrazino-1,4,4a,5,5a,6-11,12a-octahydro-3,10,12,12a-tetrahydroxy-1,11-dioxo-2-naphthacenecarboxamide monohydrochloride] | > 16 mg/kg | 2 µg/mL | – | – | 4 µg/mL | ≤ 0.015 µg/mL | – | – | – | – | 0.06 µg/mL | 0.5 µg/mL | 0.5 µg/mL | 32 µg/mL | 0.5 µg/mL | 1 µg/mL | 16 µg/mL | – | – | MIC ([3]; ATCC25922, agar dilution, Muller-Hinton II agar, 18 hours at 35° C., E. coli ATCC 25922, read-out: MIC): 1 µg/mL; MIC [4, 22]: 0.03 µg/mL; MIC ([5]; agar dilution, Muller-Hinton II agar, 18 hours at 35° C., Enteroc. spp. 12201, read-out: MIC): 0.05 µg/mL; MIC [7, 23]: 0.03 µg/mL; MIC [10, 25]: 0.5 µg/mL; MIC ([11]; agar dilution, Muller-Hinton II agar, 18 hours at 35° C., S. aureus IVES 1983 (MP) (meth. resistant), read-out: MIC): 2 µg/mL; MIC ([12]; agar dilution, Muller-Hinton II agar, 18 hours at 35° C., S. haemol. AVAH 88-3, read-out: MIC): 0.25 µg/mL |
| CN(C)[C@@H]1C(=O)C(C(N)=O)=C(O)[C@@]2(O)C(=O)C3=C(O)c4c(O)cccc4[C@@](C)(O)[C@H]3C[C@@H]12 [K, Tetracycline hydrochloride, reference compound] | – | 0.25 µg/mL | 0.5 µg/mL | 32 µg/mL | 1 µg/mL | – | > 32 µg/mL | 16 µg/mL | > 32 µg/mL | 1 µg/mL | 0.12 µg/mL | > 32 µg/mL | 32 µg/mL | > 32 µg/mL | > 32 µg/mL | > 32 µg/mL | 16 µg/mL | 0.06 µg/mL | 0.06 µg/mL | inhibition of protein synthesis, in words ([20]; cell-free extracts from tetracycline susceptible strain MRE600): inhibited; inhibition of protein synthesis, in words ([21]; cell-free extracts from strain MRE600 (tetM)): resistant; MIC ([8]; ATCC29213, 18 h): ≤ 0.015 µg/mL |
| CCN(CC)c1c(Cl)c(N)c(O)c2c1CC1CC3[C@H](N(C)C)C(O)=C(C(N)=O)C(=O)[C@@]3(O)C(O)=C1C2=O (some centres unmarked) [M] | > 16 mg/kg | – | – | – | – | – | – | – | – | – | – | – | – | – | – | – | – | – | – | – |
